Data as given in US12257070B2, “Pain assessment method based on deep learning model and analysis device” (NEUROGRIN INC., priority 2019, dated 2025).

What was measured:
capsaicin-induced pain = capsaicin-induced pain assessed by deep learning model from images of cortical nerve cells; assay type: in vivo, mouse; details: capsaicin pain state compared to before administration and after pain has subsided; model trained with formalin pain data; FIG. 11A
Source text: FIG. 11 is an analysis result for capsaicin-induced pain. FIG. 11 is a result of applying a deep learning model trained with formalin pain data to other pain causes. […] FIG. 11B is an ROC curve showing pain classification performance for FIG. 11A. It can be seen from the ROC curve that the AUC value is 0.93, which is a reliable level.

[1] = system: cerebellar Bergmann glial cells; assay: pain assessment using the activity of cerebellar Bergmann glial cells; assay type: in vivo; details: Bergmann glial cell activity image, cerebellar region; FIG. 13B
Source text: The researcher analyzed pain assessments based on areas of a brain other than cortical nerve cells. Pain assessment results using cerebellar Bergmann glial cells will be described below. Bergmann glial cells are a type of glial cell as described above. In this case, the deep learning model must be trained in advance with an image showing the activity of Bergmann glial cells of the cerebellum (e.g., a two-photon microscope image of a cerebellar region). The training data may be a two-photon microscope image of a cerebellar region and pain information (normal state or pain state) at the time of generating a corresponding image. The experimental results below are the results of the analysis device inputting individual cell activity values into the average value-based neural network model.
FIG. 13 is a result of assessing pain using the activity of cerebellar Bergmann glial cells. […] The assessment time for capsaicin was a total of 30 minutes, and the activity was assessed for 10 minutes at the time of administration and was further assessed for 10 minutes before and after administration. […] The reference state (Vehicle) is a state in which capsaicin is not injected. Referring to FIG. 13B, it can be seen that the pain assessment result is distinguished as a pain state for about 10 minutes after capsaicin injection. […]

formalin-induced pain = details: FIG. 10A
Source text: The subject animal is a mouse.
The following experimental results are assessment results obtained by inputting an activity value of an individual cell into a neural network constructed using average calcium activity values.
FIG. 10 is divided into baseline (B), early (E), inter (I), late (L), and recovery (R) sections according to time.

COc1cc(CNC(=O)CCCC/C=C/C(C)C)ccc1O [capsaicin]
predicted pain probability (capsaicin-induced pain): higher
time distinguished as a pain state after capsaicin injection [1]: about 10 minutes

C=O [Formalin, formalin]
predicted pain probability (formalin pain) (formalin-induced pain; formalin 5% or 1%, sections baseline, early, inter, late, recovery): appears only in E (early phase)

CCN(CC)CC(=O)Nc1c(C)cccc1C [lidocaine]
predicted pain probability (formalin-induced pain; analgesic given in addition to a high concentration (5%) of formalin): little pain
